Where two headings read alike, the source gives them in different places.
Experiments:
Assay type in all cases: in vivo
[1] = system: adult, Pyrethroid-susceptible horn fly (Haematobia irritans); assay: Adult pyrethroid-susceptible horn fly, treated filter paper (Table III); settings: topical, 6 h, read-out: 6 Hour % Mortality
Protocol: Test doses are expressed as μg of test substance per cm^2 of filter paper.
1) Prepare solutions of test compound in acetone such that 800 or 1000 μL contains the amount necessary to obtain the desired dose rate.
2) Pipette 800 or 1000 μL of test solution onto filter paper.
3) Filter papers are dried under a fume hood.
4) When dry, filter papers are placed in the petri dish tops. Dishes are generally held about 24 hours before test organism is added.
5) Two- to five-day-old horn flies (pyrethroid-susceptible or -resistant) which have had two or more blood meals are used in the assay. Flies are collected into a small vial from the holding cage. Vials are then chilled in a freezer for about 4 minutes to immobilize the flies. Immobilized flies are then distributed to petri dish bottoms, 12 to 25 flies per dish, then dishes are closed and inverted.
6) As soon as the flies become mobile (about 5 minutes), they are examined to detect any flies that are dead or injured. This number is subtracted from total number of flies in the dish.
7) Petri dishes are held at room temperature and examined at the desired time intervals which might be 10 minutes to 6 hours.
8) All dead flies are recorded at each examination time. A fly is considered dead if it cannot walk even though it may still be moving.
10) Percent mortality at any time period is calculated using the following formula: […]
Number of dead flies-number dead @5 min/Total number of flies-number dead
Percent mortality is then corrected for control mortality using Abbot's formula.

[2] = system: Ctenocephalides felis (cat flea); assay: Contact activity against the adult cat flea (Table I); settings: topical
Protocol: (§1) This test is designed to evaluate the contact activity of test compounds against the adult cat flea. Test compounds are dissolved in 100% acetone to 300, 100, 10 and 1 ppm. 100 μL of each of these dilutions is added to the bottom of a 20 mL glass scintillation vial with a pipettor. The vial is allowed to dry under a fume hood for 15 minutes. The bottom of the vial measures 4.909 cm^2. The amount of test compound applied by each dilution equals 6.2, 2.0, 0.2 and 0.02 μg/cm^2, respectively. Newly emerged adult cat fleas are anesthetized with CO2 to immobilize, and are counted into the scintillation vials with forceps. Five fleas are placed in each vial. These tests are done in replicates of two or three so that there are 10 to 15 fleas per rate/compound. Mortality readings are taken 4 and 24 hours after placing the fleas in the vials. […] Percent mortality is then calculated for each treatment.

[3] = system: Dermacentor variabilis (American dog tick); assay: Contact activity against the larval American dog tick (Table II); settings: topical
Protocol: This test is designed to evaluate the contact activity of test compounds against the American dog tick. Test compounds are dissolved in 100% acetone to 1000, 300, 100, 10, 1 and 0.1 ppm. 100 μL of each of these dilutions is added to the bottom of a 20 mL glass scintillation vial with a pipettor. The vial is allowed to dry under a fume hood for 15 minutes. The vial is then turned in its side, and 250 μL of each dilution is applied to the sides of the vial. The vial is placed on a rolling machine and allowed to roll under the hood, coating the sides of the vial, until the acetone completely evaporates. The bottom of the vial measures 4.909 cm^2 and the sides measure 4.5 cm high×8.8 cm around, so that the total coated area of the scintillation vial measures 44.51 cm^2. The amount of test compound applied by each dilution equals 7.86, 2.36, 0.79, 0.079, 0.0079 and 0.00079 μg/cm^2, respectively. Unfed larval dog ticks are counted into the scintillation vials with a slightly damp paintbrush. Ten ticks are placed in each vial. These tests are done in replicates of two or three so that there are 20 to 30 ticks per rate/compound. Mortality readings are taken 4 and 24 hours after placing the ticks in the vials. To read the test, the vial is placed under a magnifying glass and tapped gently. […] Percent mortality is then calculated for each treatment.

[4] = system: Bovicola spp. (biting louse); assay: Activity against the adult biting louse (Table VI); settings: dose 2.0 μg/cm^2
Protocol: This test is designed to evaluate the activity of test compounds against the biting louse. Test compounds are dissolved in 100% acetone to 300, 100 and 10 ppm. 100 μL of each of these dilutions is added to the bottom of a 20 mL glass scintillation vial with a pipettor. The vial is allowed to dry under a fume hood for 15 minutes. The bottom of the vial measures 4.909 cm^2. The amount of test compound applied by each dilution equals 6.1, 2.0 and 0.2 μg/cm^2, respectively. Included in all tests are two to three replications of untreated vials. Lice are collected from the host animal and are used within 4 hours. The lice are counted into the scintillation vials with a slightly damp paintbrush. Five adult lice are placed in each vial. These tests are done in replicates of two or three so that there are 10 to 15 lice per rate/compound. Mortality readings are taken at 2 and 4 hours after placing the lice in the vials. To read the test, the vial is placed under a magnifying glass. […] Percent mortality is then calculated for each treatment.

[5] = system: Ctenocephalides felis (cat flea); assay: whole plant or invertebrate; settings: topical, 24 h, read-out: 24 Hour % Mortality
Protocol: as §1
This test evaluates the synergistic effect of piperonyl butoxide on the formula I compounds of this invention. Piperonyl butoxide (PBO) is added in an amount of 1.5% to a 1,000 ppm solution of a test compound in acetone. Dilutions are then made with acetone to provide solutions containing 300, 100, 10 and 1 ppm of the test compound and 0.45%, 0.15%, 0.015% and 0.0015% piperonyl butoxide, respectively. Solutions containing 1,000, 300, 100, 10 and 1 ppm of the test compound alone are used as the control. […]

[6] = system: Musca domestica (house fly); assay: Activity against the adult house fly (Table V)
Protocol: This test is designed to evaluate the activity of test compounds against the house fly. Test compounds are dissolved in 100% acetone to 1000, 300, 100, 10 and 1 ppm. 100 μL of each of these dilutions is added to the bottom of a 20 mL glass scintillation vial with a pipettor. The vial is allowed to dry under a fume hood for 15 minutes. The vial is then turned on its side, and 250 μL of each dilution is applied to the sides of the vial. The vial is placed on a rolling machine and allowed to roll under the hood, coating the sides of the vial, until the acetone completely evaporates. The bottom of the vial measures 4.909 cm^2 and the sides measure 4.5 cm high×8.8 cm around, so that the total coated area of the scintillation vial measures 44.51 cm^2. The amount of test compound applied by each dilution equals 7.86, 2.36, 0.79, 0.079, and 0.0079 μg/cm^2, respectively. Included in all tests are two to three replications of untreated vials. Adult house flies which are five to seven days old are chilled in a freezer for five minutes to immobilize, and are placed on a sorting platform which provides a steady stream of CO2 to keep the flies immobile. Five flies are counted into each scintillation vial with forceps. The top of the vial is plugged with a wad of sheet cotton sufficient to contain the flies. These tests are done in replicates of two to four so that there are 10 to 20 flies per rate/compound. Mortality readings are taken 1 and 4 hours after placing the flies in the vials. Flies which are unable to stand when disturbed are considered dead. Percent mortality is then calculated for each treatment.

[7] = 4 h, read-out: 4 Hour % Mortality
[8] = 24 h, read-out: 24 Hour % Mortality
[9] = 4 hours, dose 0.079 μg/cm^2, read-out: 4 Hour % Mortality
[10] = 4 hours, dose 0.790 μg/cm^2, read-out: 4 Hour % Mortality
[11] = 4 hours, dose 2.360 μg/cm^2, read-out: 4 Hour % Mortality
[12] = 4 hours, dose 7.860 μg/cm^2, read-out: 4 Hour % Mortality
[13] = 24 hours, dose 0.079 μg/cm^2, read-out: 24 Hour % Mortality
[14] = 24 hours, dose 0.790 μg/cm^2, read-out: 24 Hour % Mortality
[15] = 24 hours, dose 2.360 μg/cm^2, read-out: 24 Hour % Mortality
[16] = 24 hours, dose 7.860 μg/cm^2, read-out: 24 Hour % Mortality
[17] = 1 h, read-out: 1 Hour % Mortality

Structure (SMILES) | mortality at 0.02 µg/cm2 [2, 7] [%] | mortality at 0.2 µg/cm2 [2, 7] [%] | mortality at 2 µg/cm2 [2, 7] [%] | mortality at 0.02 µg/cm2 [2, 8] [%] | mortality at 0.2 µg/cm2 [2, 8] [%] | mortality at 0.079 µg/cm2 [3, 9] [%] | mortality at 0.79 µg/cm2 [3, 10] [%] | mortality at 2.36 µg/cm2 [3, 11] [%] | mortality at 7.86 µg/cm2 [3, 12] [%] | mortality at 0.079 µg/cm2 [3, 13] [%] | mortality at 0.79 µg/cm2 [3, 14] [%] | mortality at 2.36 µg/cm2 [3, 15] [%] | mortality at 7.86 µg/cm2 [3, 16] [%] | other results
F/C(=C\Cc1ccc(F)c(Oc2ccc(F)cc2)c1)C(c1ccc(Cl)cc1)C1CC1 (racemic) [Compound 18] | – | – | – | – | – | – | – | – | – | – | – | – | – | mortality at 0.625 µg/cm2 [1]: 4%; mortality at 1.25 µg/cm2 [1]: 36%; mortality at 2.5 µg/cm2 [1]: 94%; mortality at 5 µg/cm2 [1]: 99%; mortality at 10 µg/cm2 [1]: 100%
F/C(=C\Cc1ccc(F)c(Oc2ccccc2)c1)C(c1ccc(Cl)cc1)C1CC1 (stereo not drawn) [Compound 5, 1-[1-(p-Chlorophenyl)-2-fluoro-4-(4-fluoro-3-phenoxyphenyl)-2-butenyl]cyclopropane, (Z)-] | 34 | 39 | 79 | 69 | 81 | 100 | 100 | 100 | 100 | 100 | 100 | 100 | 100 | mortality at 6.2 µg/cm2 ([2]; 4 hours, dose 6.20 μg/cm^2, read-out: 4 Hour % Mortality): 98%; mortality at 0.00079 µg/cm2 ([3]; 4 hours, dose 0.00079 μg/cm^2, read-out: 4 Hour % Mortality): 100%; mortality at 0.0079 µg/cm2 ([3]; 4 hours, dose 0.0079 μg/cm^2, read-out: 4 Hour % Mortality): 100%; mortality at 0.00079 µg/cm2 ([3]; 24 hours, dose 0.00079 μg/cm^2, read-out: 24 Hour % Mortality): 100%; mortality at 0.0079 µg/cm2 ([3]; 24 hours, dose 0.0079 μg/cm^2, read-out: 24 Hour % Mortality): 100%; 2 Hour % Mortality [4]: 92%; mortality at 2 µg/cm2 [5]: 100%; mortality at 6.2 µg/cm2 [5]: 100%
CCOc1ccc(C(/C(F)=C/Cc2ccc(F)c(Oc3ccccc3)c2)C2CC2)cc1 (stereo not drawn) [Compound 10, 1-[1-(p-Ethoxyphenyl)-2-fluoro-4-(4-fluoro-3-phenoxyphenyl)-2-butenyl]cyclopropane, (Z)-] | 10 | 68 | 70 | 20 | 95 | 100 | 100 | 100 | 100 | 100 | 100 | 100 | 100 | mortality at 6.2 µg/cm2 [2, 7]: 100%; mortality at 2 µg/cm2 [2, 8]: 100%; mortality at 6.2 µg/cm2 [2, 8]: 100%; mortality at 0.079 µg/cm2 [6, 17]: 20%; mortality at 0.79 µg/cm2 [6, 17]: 20%; mortality at 2.36 µg/cm2 [6, 17]: 40%; mortality at 0.079 µg/cm2 [6, 7]: 60%; mortality at 2.36 µg/cm2 [6, 7]: 100%; mortality at 0.79 µg/cm2 [6, 10]: 75%
